What follows are molecules tested against Human LPA1 (Homo sapiens, UniProt Q92633) (assay: Beta-Arrestin based assay for human LPA1R antagonists (PathHunter)). Settings: CHO cells stably expressing ProLink tagged human LPA1R; agonist LPA 0.5 micromolar.
Chain of Human LPA1 (Q92633 whole entry): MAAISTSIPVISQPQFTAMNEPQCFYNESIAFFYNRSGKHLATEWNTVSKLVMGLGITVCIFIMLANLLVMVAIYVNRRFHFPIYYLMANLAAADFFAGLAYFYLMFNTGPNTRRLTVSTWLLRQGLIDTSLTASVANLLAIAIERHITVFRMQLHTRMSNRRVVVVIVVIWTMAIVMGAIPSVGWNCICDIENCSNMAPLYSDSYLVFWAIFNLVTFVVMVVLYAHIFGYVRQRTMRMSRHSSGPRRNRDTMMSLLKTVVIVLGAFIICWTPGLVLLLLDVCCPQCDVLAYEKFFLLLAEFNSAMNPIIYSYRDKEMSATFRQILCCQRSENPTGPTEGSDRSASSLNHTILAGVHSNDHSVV
Type: cell-based
Design: host or cells: CHO
Description: Beta-Arrestin Based Assays for Human LPA1R Antagonists and Agonists
A CHO cell line stably expressing the ProLink™ tagged human LPA1R was obtained from DiscoverX Inc, Fremont, Calif. In this system, β-Arrestin was fused to an N-terminal deletion mutant of β-galactosidase (termed the enzyme acceptor or EA), the human LPA1R was fused to a smaller (42 amino acids) weakly complementing fragment termed ProLink™. […] Cell handling and assays were performed according to protocols specified in the PathHunter® assays kits (DiscoverX, Fremont, Calif.). Assays were performed in quadruplicate in white 384 well plates. End point luminescence data were plotted and fit to a 4 parameter logistic function to obtain IC50 values. For antagonist assays, an […] concentration of agonist (LPA) equal to 0.5 micromolar was used.
`Cc1nsc(-c2ccc(-c3ccc(C4(C(=O)O)CC4)cc3)cc2)c1NC(=O)OC(C)c1ccccc1` (centres unmarked) [Compound 253] was tested, and the EC50 was < 50 nM. `O=C(Nc1cncn1-c1ccc(-c2ccc(C3(C(=O)O)CC3)cc2)cc1)OCc1ccccc1` [Compound 166] was tested, and the EC50 was > 500 nM. In the case of `O=C(O)Cc1ccc(N2CCN(C(=O)CNC(=O)OCc3ccccc3)CC2)cc1` [Compound 269], the EC50 is reported as > 500 nM. `Cc1nsc(-c2ccc(-c3ccc(C4(C(=O)O)CC4)cc3)cc2)c1NC(=O)OCc1ccc(F)cc1` [Compound 98] gave an EC50 of 50 to 500 nM. With `C[C@@H](OC(=O)Nc1c(-c2cc(F)c(-c3ccc(C4(C(=O)O)CC4)cc3)cc2F)cnn1C)c1ccccc1Cl` [Compound 199] the EC50 was < 50 nM. `Cc1nsc(-c2ccc(-c3ccc(C4(C(=O)O)CC4)cc3)cc2C#N)c1NC(=O)O[C@H](C)c1ccccc1` [Compound 189] was tested, and the EC50 was > 500 nM. For `Cc1nsc(-c2ccc(-c3ccc(C(C(=O)O)c4ccccc4)cc3)cc2)c1NC(=O)O[C@H](C)c1ccccc1Cl` (some centres unmarked) [Compound 69], the EC50 was < 50 nM. With `Cc1nsc(-c2ccc(-c3ccc(C4(C(=O)O)CC4)cc3)cc2)c1NC(=O)OCc1ccc(Cl)cc1Cl` [Compound 99] the EC50 was > 500 nM. `C[C@@H](OC(=O)Nc1c(-c2ccc(-c3ccc(C4(C(=O)O)CC4)cc3)cc2)sc2ccccc12)c1ccccc1Cl` [Compound 209] was tested, and the EC50 was 50 to 500 nM. With `Cc1cccc2c(NC(=O)O[C@H](C)c3ccccc3Cl)c(-c3ccc(-c4ccc(C5(C(=O)O)CC5)cc4)cc3)oc12` [Compound 51] the EC50 was > 500 nM. For `C[C@@H](OC(=O)Nc1c(-c2cc(Cl)c(-c3ccc(C4(C(=O)O)CC4)cc3)cc2F)cnn1C)c1ccccc1Cl` [Compound 202], the EC50 was < 50 nM. Work on `Cc1nsc(-c2ccc(-c3ccc(C4(C(=O)O)CC4)cc3)cc2)c1NC(=O)OCc1ccccc1F` [Compound 73] yielded an EC50 of 50 to 500 nM. For `CCOC(=O)Cc1ccc(-c2ccc(-c3onc(C)c3NS(=O)(=O)Cc3ccccc3)cc2)cc1` [Compound 15], the EC50 was > 500 nM. Work on `Cc1noc(-c2ccc(-c3ccc4c(c3)CCCC4C(=O)O)cc2)c1NC(=O)O[C@H](C)c1ccccc1Cl` (some centres unmarked) [Compound 21] yielded an EC50 of 50 to 500 nM. In the case of `C[C@@H](OC(=O)Nc1c(-c2ccc(-c3ccc(C4(C(=O)O)CC4)cc3)cc2)oc2ccccc12)c1ccccc1Cl` [Compound 42], the EC50 is reported as < 50 nM. With `Cc1noc(-c2ccc3c(c2)CCc2cc(C4(C(=O)O)CC4)ccc2-3)c1NC(=O)O[C@H](C)c1ccccc1` [Compound 247] the EC50 was < 50 nM. With `CN(CC(=O)N1CCN(c2ccc(CC(=O)O)cc2)CC1)C(=O)OCc1ccccc1` [Compound 271] the EC50 was > 500 nM. `Cc1nsc(C#Cc2ccc3cc(CC(=O)O)ccc3c2)c1NC(=O)O[C@H](C)c1ccccc1` [Compound 90] was tested, and the EC50 was 50 to 500 nM. With `C[C@@H](OC(=O)Nc1c(-c2ccc(-c3ccc(C4(C(=O)O)CC4)cc3)cc2)oc2nc(C(F)(F)F)ccc12)c1ccccc1` [Compound 212] the EC50 was > 500 nM. With `C[C@@H](OC(=O)Nc1scnc1-c1ccc(-c2ccc(C3(C(=O)O)CC3)cc2)cc1)c1ccccc1` [Compound 106] the EC50 was 50 to 500 nM. With `Cc1nsc(-c2ccc(-c3ccc(C4(C(=O)O)CC4)cc3)cc2)c1NC(=O)O[C@H](C)C1=C(Cl)CCCC1` [Compound 218] the EC50 was < 50 nM. With `Cc1nc(NC(=O)O[C@H](C)c2ccccc2Cl)n(-c2ccc(-c3ccc(C4(C(=O)O)CC4)cc3)cc2)n1` [Compound 162] the EC50 was > 500 nM. In the case of `Cc1noc(C#Cc2cc3sc(C4(C(=O)O)CC4)cc3s2)c1NC(=O)O[C@H](C)c1ccccc1` [Compound 255], the EC50 is reported as < 50 nM. In the case of `COC(=O)N1CC(C(=O)O)(c2ccc(-c3ccc(-c4onc(C)c4NC(=O)O[C@H](C)c4ccccc4Cl)cc3)cc2)C1` [Compound 37], the EC50 is reported as < 50 nM. For `Cc1nsc(-c2cc(F)c(-c3ccc(C4(C(=O)O)CC4)cc3)cc2F)c1NC(=O)O[C@H](C)c1ccccc1Cl` [Compound 181], the EC50 was < 50 nM. `Cc1nsc(-c2ccc(-c3ccc(C4(C(=O)O)CC4)cc3)c3c2CCC3)c1NC(=O)O[C@H](C)c1ccccc1` [Compound 239] was tested, and the EC50 was > 500 nM. With `O=C(O)Cc1ccc(-c2ccc(-c3cc(NC(=O)C4CCCC4)ccn3)cc2)cc1` [reference compound] the EC50 was > 500 nM. In the case of `CCCOC(=O)NCC(=O)c1ccc(-c2ccc(CC(=O)O)cc2)cc1` [reference compound], the EC50 is reported as > 500 nM. For `C[C@@H](OC(=O)Nc1c(-c2ccc(-c3ccc(C4(C(=O)O)CC4)cc3)cc2)oc2cnccc12)c1ccccc1` [Compound 150], the EC50 was < 50 nM. `Cc1nsc(-c2ccc3c(c2)CCc2cc(C4(C(=O)O)CC4)ccc2-3)c1NC(=O)OCc1ccccc1` [Compound 246] was tested, and the EC50 was 50 to 500 nM. `Cc1nsc(-c2ccc3c(c2)CCc2cc(C4(C(=O)O)CC4)ccc2-3)c1NC(=O)O[C@H](C)c1ccccc1Cl` [Compound 249] was tested, and the EC50 was < 50 nM. With `Cc1noc(-c2ccc(Nc3ccccc3C(=O)O)cc2)c1NC(=O)O[C@H](C)c1ccccc1Cl` [Compound 22] the EC50 was > 500 nM. With `Cc1ccc2c(NC(=O)O[C@H](C)c3ccccc3)c(-c3ccc(-c4ccc(C5(C(=O)O)CC5)cc4)cc3)oc2n1` [Compound 215] the EC50 was > 500 nM. Molecule `CCNC(=O)N1CC(C(=O)O)(c2ccc(-c3ccc(-c4onc(C)c4NC(=O)O[C@H](C)c4ccccc4Cl)cc3)cc2)C1` [Compound 40] has an EC50 of 50 to 500 nM. For `Cc1nc(NC(=O)O[C@H](C)c2ccccc2)n(-c2ccc(-c3ccc(C4(C(=O)O)CC4)cc3)cc2)n1` [Compound 161], the EC50 was > 500 nM. `Cc1nsc(-c2ccc(-c3ccc(C4(C(=O)O)CCCC4)cc3)cc2)c1NC(=O)O[C@H](C)c1ccccc1` [Compound 125] gave an EC50 of 50 to 500 nM. `Cc1noc(-c2ccc(-c3ccc4c(c3)CCC4C(=O)O)cc2)c1NC(=O)O[C@H](C)c1ccccc1Cl` (single isomer, unassigned) [Compound 26] was tested, and the EC50 was < 50 nM. `C[C@@H](OC(=O)Nc1snnc1-c1ccc(-c2ccc(C3(C(=O)O)CC3)cc2)cc1)c1ccccc1Cl` [Compound 175] showed an EC50 of 50 to 500 nM. `Cc1noc(-c2ccc(-c3ccc(N4CCC[C@@H](C(=O)O)C4)cc3)cc2)c1NC(=O)O[C@H](C)c1ccccc1` [Compound 136] was tested, and the EC50 was 50 to 500 nM. `C[C@@H](OC(=O)Nc1sc2ccccc2c1-c1ccc(-c2ccc(C3(C(=O)O)CC3)cc2)cc1)c1ccccc1` [Compound 207] was tested, and the EC50 was > 500 nM. `Cc1nsc(-c2ccc(-c3ccc(C4(C(=O)O)CC4)cc3)cc2Cl)c1NC(=O)O[C@H](C)c1ccccc1Cl` [Compound 187] was tested, and the EC50 was < 50 nM. With `Cc1nsc(-c2ccc(-c3ccc(C4(C(=O)O)CC4)c(F)c3)cc2)c1NC(=O)O[C@H](C)c1ccccc1Cl` [Compound 197] the EC50 was < 50 nM. `Cc1noc(C#Cc2ccc3cc(CC(=O)O)ccc3c2)c1NC(=O)O[C@H](C)c1ccccc1` [Compound 128] was tested, and the EC50 was 50 to 500 nM. For `Cc1nsc(-c2ccc(-c3ccc(C4(C(=O)O)CC4)cc3)cc2)c1NC(=O)OCc1cccc(Cl)c1` [Compound 97], the EC50 was < 50 nM. For `Cc1nsc(-c2cc(F)c(-c3ccc(C4(C(=O)O)CC4)cc3)cc2Cl)c1NC(=O)O[C@H](C)c1ccccc1Cl` [Compound 180], the EC50 was < 50 nM. `Cc1noc(-c2ccc3cc(C#CC4(C(=O)O)CC4)ccc3c2)c1NC(=O)O[C@H](C)c1ccccc1Cl` [Compound 141] was tested, and the EC50 was < 50 nM. For `Cc1noc(C#Cc2cc3sc(C(=O)O)cc3s2)c1NC(=O)O[C@H](C)c1ccccc1` [Compound 254], the EC50 was 50 to 500 nM. Work on `O=C(Nc1scnc1-c1ccc(-c2ccc(C3(C(=O)O)CC3)cc2)cc1)OCc1ccccc1` [Compound 108] yielded an EC50 of 50 to 500 nM. In the case of `C[C@@H](OC(=O)Nc1ncsc1-c1ccc(-c2ccc(C3(C(=O)O)CC3)cc2)cc1)c1ccccc1Cl` [Compound 110], the EC50 is reported as 50 to 500 nM. In the case of `O=C(O)Cc1ccc(C2CCN(C(=O)CCNC(=O)OCc3ccccc3)CC2)cc1` [Compound 256], the EC50 is reported as > 500 nM. `CC(C)n1ncc(-c2ccc(-c3ccc(C4(C(=O)O)CC4)cc3)cc2)c1NC(=O)O[C@H](C)c1ccccc1` [Compound 220] was tested, and the EC50 was < 50 nM. Molecule `Cc1noc(-c2ccc(-c3ccc(N4CC[C@@H](C(=O)O)C4)cc3)cc2)c1NC(=O)O[C@H](C)c1ccccc1Cl` [Compound 134] has an EC50 of 50 to 500 nM. `Cc1noc(-c2ccc(-c3ccc(C4(C(=O)O)CC4)cc3)cc2)c1NC(=O)OC1(c2ccccc2)CC1` [Compound 76] gave an EC50 of 50 to 500 nM. With `O=C(O)Cc1ccc(N2CCN(C(=O)CCNC(=O)COc3ccccc3)CC2)cc1` [Compound 265] the EC50 was > 500 nM. Molecule `Cc1nsc(-c2ccc(-c3ccc(C4(C(=O)O)CC4)cc3)nc2)c1NC(=O)O[C@H](C)c1ccccc1Cl` [Compound 251] has an EC50 of 50 to 500 nM. For `Cc1nsc(-c2ccc3cc(C#CC4(C(=O)O)CC4)ccc3c2)c1NC(=O)O[C@H](C)c1ccccc1Cl` [Compound 87], the EC50 was < 50 nM. For `C[C@@H](OC(=O)Nc1nn(C)nc1-c1ccc(-c2ccc(C3(C(=O)O)CC3)cc2)cc1)c1ccccc1` [Compound 225], the EC50 was > 500 nM. `O=C(Nc1snnc1-c1ccc(-c2ccc(C3(C(=O)O)CC3)cc2)cc1)OCc1ccccc1` [Compound 173] was tested, and the EC50 was > 500 nM. `Cc1nsc(C#Cc2ccc3cc(CC(=O)O)ccc3c2)c1NC(=O)O[C@H](C)c1ccccc1Cl` [Compound 94] was tested, and the EC50 was 50 to 500 nM. With `Cc1nsc(-c2ccc(-c3ccc(C4(C(=O)O)CC4)cc3)cc2)c1NC(=O)O[C@H](C)c1cccc(Cl)c1` [Compound 198] the EC50 was < 50 nM. `C[C@@H](OC(=O)Nc1ncsc1-c1ccc(-c2ccc(C3(C(=O)O)CC3)cc2)cc1)c1ccccc1` [Compound 109] was tested, and the EC50 was 50 to 500 nM. With `C[C@@H](OC(=O)Nc1snnc1-c1ccc(-c2ccc(C3(C(=O)O)CC3)cc2)cc1)c1ccccc1` [Compound 174] the EC50 was 50 to 500 nM. `Cc1nsc(-c2ccc(-c3ccc(C4(C(=O)O)CC4)cc3)c(F)c2)c1NC(=O)O[C@H](C)c1ccccc1Cl` [Compound 117] was tested, and the EC50 was < 50 nM. With `Cc1noc(C#Cc2ccc(C3(C(=O)O)CC3)cc2)c1NC(=O)O[C@H](C)c1ccccc1` [Compound 250] the EC50 was 50 to 500 nM. In the case of `C[C@@H](OC(=O)Nc1c(-c2ccc(-c3ccc(C4(C(=O)O)CC4)cc3)c(F)c2)cnn1C)c1ccccc1` [Compound 203], the EC50 is reported as < 50 nM.
